Data on two compounds can be found in ChEMBL document CHEMBL3822364, “Synthesis, characterization and antimicrobial activity of novel Schiff base tethered boronate esters of 1,2-O-isopropylidene-α-d-xylofuranose” (2016).

Molecules are shown by their SMILES. Converted amounts (≈) assume the structure as drawn.

The term MIC denotes the lowest concentration found to suppress growth.

The first test concerns Salmonella paratyphi. The test can be described thus: Antibacterial activity against Salmonella paratyphi assessed as zone of inhibition at 100 ug/well measured after 24 hrs by agar well diffusion method. The test is classed as functional, Salmonella enterica subsp. enterica serovar Paratyphi A. The conditions noted are these: Salmonella enterica, read-out: DIZ. (A growth-free zone around the sample is the usual read-out of agar diffusion tests.)
For `CC1(C)O[C@H]2O[C@@H]3COB(c4cccc(/C=N/c5ccc(Br)cc5)c4)O[C@@H]3[C@H]2O1`, the zone of inhibition at 100 µg/disc was found to be 21 mm.

As to `CC1(C)O[C@H]2O[C@@H]3COB(c4ccc(/C=N/c5ccc(Cl)cc5)cc4)O[C@@H]3[C@H]2O1`, the zone of inhibition at 100 µg/disc amounted to 13 mm.

The next test concerns Streptococcus mutans. The test can be described thus: Antibacterial activity against Streptococcus mutans MTCC 497 assessed as zone of inhibition at 100 ug/well measured after 24 hrs by agar well diffusion method. The test is classed as functional. The conditions noted are these: MTCC 497, 24 h, read-out: DIZ.
As for `CC1(C)O[C@H]2O[C@@H]3COB(c4cccc(/C=N/c5ccc(Br)cc5)c4)O[C@@H]3[C@H]2O1`, the zone of inhibition at 100 µg/disc worked out at 20 mm.

For `CC1(C)O[C@H]2O[C@@H]3COB(c4ccc(/C=N/c5ccc(Cl)cc5)cc4)O[C@@H]3[C@H]2O1`, the zone of inhibition at 100 µg/disc was 22 mm.

The test system of another test is Staphylococcus aureus. The test can be described thus: Antibacterial activity against Staphylococcus aureus MTCC 3160 assessed as zone of inhibition at 100 ug/well measured after 24 hrs by agar well diffusion method. Type of test: functional. The conditions noted are these: MTCC 3160, 24 h, read-out: DIZ.
On to `CC1(C)O[C@H]2O[C@@H]3COB(c4cccc(/C=N/c5ccc(Br)cc5)c4)O[C@@H]3[C@H]2O1`, for which the zone of inhibition at 100 µg/disc was determined as 13 mm.

For `CC1(C)O[C@H]2O[C@@H]3COB(c4ccc(/C=N/c5ccc(Cl)cc5)cc4)O[C@@H]3[C@H]2O1`, the zone of inhibition at 100 µg/disc was 16 mm.

The subject of the next test is Salmonella typhi. The test can be described thus: Antibacterial activity against Salmonella typhi assessed as zone of inhibition at 100 ug/well measured after 24 hrs by agar well diffusion method. The conditions noted are these: Salmonella enterica, read-out: DIZ. Type of test: functional, Salmonella enterica subsp. enterica serovar Typhi.
With `CC1(C)O[C@H]2O[C@@H]3COB(c4cccc(/C=N/c5ccc(Br)cc5)c4)O[C@@H]3[C@H]2O1`, the zone of inhibition at 100 µg/disc is 22 mm.

Consider `CC1(C)O[C@H]2O[C@@H]3COB(c4ccc(/C=N/c5ccc(Cl)cc5)cc4)O[C@@H]3[C@H]2O1`, for which the zone of inhibition at 100 µg/disc worked out at 22 mm.

The subject of a further test is Candida albicans. The test can be described thus: Antifungal activity against Candida albicans MTCC 3017 assessed as zone of inhibition at 100 ug/well measured after 48 hrs by agar well diffusion method. The settings on record: MTCC 3017, 48 h, read-out: DIZ. The test is classed as functional.
On to `CC1(C)O[C@H]2O[C@@H]3COB(c4cccc(/C=N/c5ccc(Br)cc5)c4)O[C@@H]3[C@H]2O1`, for which the zone of inhibition at 100 µg/disc is 16 mm.

Consider `CC1(C)O[C@H]2O[C@@H]3COB(c4ccc(/C=N/c5ccc(Cl)cc5)cc4)O[C@@H]3[C@H]2O1`, for which the zone of inhibition at 100 µg/disc was 11 mm.

The next test deals with Candida albicans. The test can be described thus: Antifungal activity against Candida albicans MTCC 3017 measured after 48 hrs by NCCL protocol based broth dilution method. The conditions noted are these: MTCC 3017, 48 h. The test is classed as functional.
Take `CC1(C)O[C@H]2O[C@@H]3COB(c4cccc(/C=N/c5ccc(Br)cc5)c4)O[C@@H]3[C@H]2O1`: the lowest concentration to inhibit growth (MIC) was 125 µg/mL (≈ 273 µM).

Compound `CC1(C)O[C@H]2O[C@@H]3COB(c4ccc(/C=N/c5ccc(Cl)cc5)cc4)O[C@@H]3[C@H]2O1` yielded an MIC of 250 µg/mL (≈ 604 µM). This MIC lies about 2-fold higher than the previous one.

The next test deals with Salmonella typhi. The test can be described thus: Antibacterial activity against Salmonella typhi measured after 24 hrs by NCCL protocol based broth dilution method. The test is classed as functional, Salmonella enterica subsp. enterica serovar Typhi. The conditions noted are these: Salmonella enterica. Background: In broth dilution the organism is exposed to a series of concentrations in liquid medium.
As to `CC1(C)O[C@H]2O[C@@H]3COB(c4cccc(/C=N/c5ccc(Br)cc5)c4)O[C@@H]3[C@H]2O1`, the MIC was 31.2 µg/mL (≈ 68.2 µM).

In turn, `CC1(C)O[C@H]2O[C@@H]3COB(c4ccc(/C=N/c5ccc(Cl)cc5)cc4)O[C@@H]3[C@H]2O1` registered an MIC of 62.5 µg/mL (≈ 151 µM).

The subject of the next test is Aspergillus fumigatus. The test can be described thus: Antifungal activity against Aspergillus fumigatus MTCC 343 measured after 48 hrs by NCCL protocol based broth dilution method. The test is classed as functional. The settings on record: MTCC 343, 48 h.
As to `CC1(C)O[C@H]2O[C@@H]3COB(c4cccc(/C=N/c5ccc(Br)cc5)c4)O[C@@H]3[C@H]2O1`, the MIC is 250 µg/mL (≈ 546 µM).

Compound `CC1(C)O[C@H]2O[C@@H]3COB(c4ccc(/C=N/c5ccc(Cl)cc5)cc4)O[C@@H]3[C@H]2O1` came in with an MIC of 500 µg/mL (≈ 1210 µM).

For the next test, the system named is Staphylococcus aureus. The test can be described thus: Antibacterial activity against Staphylococcus aureus MTCC 3160 measured after 24 hrs by NCCL protocol based broth dilution method. The test is classed as functional. The settings on record: MTCC 3160, 24 h.
Take `CC1(C)O[C@H]2O[C@@H]3COB(c4cccc(/C=N/c5ccc(Br)cc5)c4)O[C@@H]3[C@H]2O1`: the minimal inhibitory concentration (MIC) was 250 µg/mL (≈ 546 µM).

The compound `CC1(C)O[C@H]2O[C@@H]3COB(c4ccc(/C=N/c5ccc(Cl)cc5)cc4)O[C@@H]3[C@H]2O1` came in with an MIC of 125 µg/mL (≈ 302 µM). This MIC lies about 2-fold lower than the previous one.

For the next test, the system named is Aspergillus fumigatus. The test can be described thus: Antifungal activity against Aspergillus fumigatus MTCC 343 assessed as zone of inhibition at 100 ug/well measured after 48 hrs by agar well diffusion method. Type of test: functional. The conditions noted are these: MTCC 343, 48 h, read-out: DIZ.
With `CC1(C)O[C@H]2O[C@@H]3COB(c4cccc(/C=N/c5ccc(Br)cc5)c4)O[C@@H]3[C@H]2O1`, the zone of inhibition at 100 µg/disc is 0 mm.

In the case of `CC1(C)O[C@H]2O[C@@H]3COB(c4ccc(/C=N/c5ccc(Cl)cc5)cc4)O[C@@H]3[C@H]2O1`, the zone of inhibition at 100 µg/disc stood at 0 mm.

Another test has as its system Streptococcus mutans. The test can be described thus: Antibacterial activity against Streptococcus mutans MTCC 497 measured after 24 hrs by NCCL protocol based broth dilution method. The conditions noted are these: MTCC 497, 24 h. The test is classed as functional.
Turning to `CC1(C)O[C@H]2O[C@@H]3COB(c4cccc(/C=N/c5ccc(Br)cc5)c4)O[C@@H]3[C@H]2O1`, the MIC stood at 62.5 µg/mL (≈ 136 µM).

On to `CC1(C)O[C@H]2O[C@@H]3COB(c4ccc(/C=N/c5ccc(Cl)cc5)cc4)O[C@@H]3[C@H]2O1`, for which it took 62.5 µg/mL (≈ 151 µM) to inhibit growth (MIC).

Another test has as its system Micrococcus luteus. The test can be described thus: Antibacterial activity against Micrococcus luteus MTCC 106 assessed as zone of inhibition at 100 ug/well measured after 24 hrs by agar well diffusion method. The test is classed as functional. The settings on record: MTCC 106, 24 h, read-out: DIZ.
As to `CC1(C)O[C@H]2O[C@@H]3COB(c4cccc(/C=N/c5ccc(Br)cc5)c4)O[C@@H]3[C@H]2O1`, the zone of inhibition at 100 µg/disc was determined as 14 mm.

Consider `CC1(C)O[C@H]2O[C@@H]3COB(c4ccc(/C=N/c5ccc(Cl)cc5)cc4)O[C@@H]3[C@H]2O1`, for which the zone of inhibition at 100 µg/disc was 13 mm.

A further test concerns Klebsiella pneumoniae. The test can be described thus: Antibacterial activity against Klebsiella pneumoniae MTCC 3384 measured after 24 hrs by NCCL protocol based broth dilution method. The test is classed as functional. The settings on record: MTCC 3384, 24 h.
The compound `CC1(C)O[C@H]2O[C@@H]3COB(c4cccc(/C=N/c5ccc(Br)cc5)c4)O[C@@H]3[C@H]2O1` came in with an MIC of 62.5 µg/mL (≈ 136 µM).

As to `CC1(C)O[C@H]2O[C@@H]3COB(c4ccc(/C=N/c5ccc(Cl)cc5)cc4)O[C@@H]3[C@H]2O1`, it took 62.5 µg/mL (≈ 151 µM) to inhibit growth (MIC).

The next test concerns Salmonella paratyphi. The test can be described thus: Antibacterial activity against Salmonella paratyphi measured after 24 hrs by NCCL protocol based broth dilution method. The test is classed as functional, Salmonella enterica subsp. enterica serovar Paratyphi A. The settings on record: Salmonella enterica.
`CC1(C)O[C@H]2O[C@@H]3COB(c4cccc(/C=N/c5ccc(Br)cc5)c4)O[C@@H]3[C@H]2O1` returned an MIC of 62.5 µg/mL (≈ 136 µM).

Take `CC1(C)O[C@H]2O[C@@H]3COB(c4ccc(/C=N/c5ccc(Cl)cc5)cc4)O[C@@H]3[C@H]2O1`: the MIC came to 125 µg/mL (≈ 302 µM).

A further test concerns Micrococcus luteus. The test can be described thus: Antibacterial activity against Micrococcus luteus MTCC 106 measured after 24 hrs by NCCL protocol based broth dilution method. The test is classed as functional. The settings on record: MTCC 106, 24 h.
`CC1(C)O[C@H]2O[C@@H]3COB(c4cccc(/C=N/c5ccc(Br)cc5)c4)O[C@@H]3[C@H]2O1` gave an MIC of 125 µg/mL (≈ 273 µM).

In the case of `CC1(C)O[C@H]2O[C@@H]3COB(c4ccc(/C=N/c5ccc(Cl)cc5)cc4)O[C@@H]3[C@H]2O1`, the MIC was found to be 125 µg/mL (≈ 302 µM).

A further test deals with Klebsiella pneumoniae. The test can be described thus: Antibacterial activity against Klebsiella pneumoniae MTCC 3384 assessed as zone of inhibition at 100 ug/well measured after 24 hrs by agar well diffusion method. Type of test: functional. The conditions noted are these: MTCC 3384, 24 h, read-out: DIZ.
For the compound `CC1(C)O[C@H]2O[C@@H]3COB(c4cccc(/C=N/c5ccc(Br)cc5)c4)O[C@@H]3[C@H]2O1`, the zone of inhibition at 100 µg/disc is 18 mm.

With `CC1(C)O[C@H]2O[C@@H]3COB(c4ccc(/C=N/c5ccc(Cl)cc5)cc4)O[C@@H]3[C@H]2O1`, the zone of inhibition at 100 µg/disc was 24 mm.
